We go through 1 substance from publication PMC10580319, “Quantitative Imaging of the Action of vCPP2319, an Antimicrobial Peptide from a Viral Scaffold, against Staphylococcus aureus Biofilms of a Clinical Isolate” (ACS Infectious Diseases, 2023).

Data set [1] concerns S. aureus clinical isolate biofilms. The experiment in a line: AFM imaging, surface roughness (Rrms). It counts as cell-based, Staphylococcus aureus. Particulars: 4 h; for cell surface roughness (Rrms): untreated 7.4 ± 1.9 nm; for biofilm surface roughness (Rrms): untreated 183 ± 23 nm. How it is done: AFM was used to visualize the topography and morphology of S. aureus biofilms in the absence and presence of vCPP2319. Bacterial suspensions at 1 × 10^6 CFU/mL were incubated in a sterile slide with a removable 12 well silicone chamber (Ibidi) for 24 h at 37 °C. After a washing step with MHB, preformed biofilms were incubated in the absence or presence of vCPP2319 at 25 or 50 μM, for 4 h at 37 °C. Untreated and treated biofilms were then washed once with sterile Milli-Q water and incubated with 0.1% (v/v) glutaraldehyde (Sigma-Aldrich) for 4 h at room temperature. Afterward, each sample was washed twice with sterile Milli-Q water and allowed to dry in air for 1 h at room temperature. AFM images were acquired by using a JPK NanoWizard IV (Berlin, Germany) mounted on a Zeiss Axiovert 200 inverted microscope (Oberkochen, Germany). The AFM head was equipped with a 15 μm z-range linearized piezoelectric scanner and an infrared laser. Images were acquired in air and in intermittent contact mode using uncoated silicon ACL cantilevers from AppNano (Mountain View, CA, USA) with typical resonance frequencies of 200–400 kHz and spring constant of 13–77 N/m. Scan speeds ranged between 0.2 and 0.4 Hz and total scan areas of 5 × 5 μm were imaged. Height and error images were recorded. Height images reflect the topography of the sample. Error images are generated by the deflection of the cantilever as it bends while interacting with the sample and are adequate to improve resolution on the edges of objects imaged by AFM. For each experiment, three different areas were imaged. The surface roughness was defined as the root-mean-square roughness (Rrms)[52] and it was obtained from AFM height images using Gwyddion software version 2.56, based on the following equation after compensation for bacterial curvature: [drawing 3] 3 where N is the number of data points and zi is the height deviation of i-th point from a mean line.[53] For the biofilm surface roughness, Rrms values were calculated from the total imaged area of the biofilm, while for the cell surface roughness, Rrms values were calculated from a line of cells in three different regions of each image of untreated and peptide-treated biofilms. The final Rrms values are the averages of all measurements.

A further data set concerns HMEC-1 cells. In words: Cytotoxicity, CellTiter-Blue cell viability assay. In kind it is cell-based, human. The settings on record: 24 h incubation. The method, then:
Human dermal microvascular endothelium cells (HMEC-1, ATCC CRL-3243) (ATCC, Manassas, VA, USA) were cultured as a monolayer using MCDB-131 medium (without L-glutamine) with phenol red (Gibco, Thermo-Fisher, Waltham, MA, USA). The medium was supplemented with 10% (v/v) fetal bovine serum (FBS), 1% (v/v) penicillin/streptomycin (Gibco, Thermo-Fisher), 10 ng/mL epidermal growth factor (EGF), 1 μg/mL hydrocortisone (Sigma-Aldrich, St. Louis, MO, USA), and 10 mM glutamine (ATCC), according to the manufacturer’s instructions. Cells were grown in a humidified atmosphere of 5% CO2 at 37 °C. The cytotoxicity of vCPP2319 toward HMEC-1 cells was determined using CellTiter-Blue Cell Viability Assay (Promega, USA), according to the manufacturer’s instructions. HMEC-1 cells were seeded into a sterile 96-well clear flat-bottomed polystyrene plate (Corning) at 2.5 × 10^4 cells/well and incubated for 24 h at 37 °C. After medium removal, cells were washed twice with PBS. […] The fluorescence intensity was measured with excitation and emission at 560 and 590 nm, respectively, using the infinite M200 microplate reader (Tecan). […] HMEC-1 cells metabolic activity (%) was determined using the following equation: [drawing 2] 2 where FP is the fluorescence intensity of peptide-treated cells, FNC is the fluorescence intensity of negative controls, and FPC is the fluorescence intensity of positive controls. […]

Where no end group is shown, it is not given here.

For the substance WRRRYRRWRRRRRWRRRPRR-NH2 [vCPP2319], the results for the “cell surface roughness (Rrms)” value in data set [1] (25 μM) and in data set [1] (50 μM) were 13 ± 3 nm and 20 ± 5 nm, respectively. Besides, the “biofilm surface roughness (Rrms)” value in data set [1] (25 μM) came to 303 ± 93 nm; in data set [1] (50 μM), 429 ± 142 nm. Also, the “effect on metabolic activity of HMEC-1 cells” value in the data set on HMEC-1 cells (50 μM, highest concentration tested) is recorded as “slight effect”; in the data set on HMEC-1 cells (concentrations of up to 25 μM) it was “no effect”.
